Molecular target: T1, CSK (Homo sapiens, UniProt P41240)
T1 construct: purchased Thermo Fisher Scientific (Life Technologies) SelectScreen
Assay: SelectScreen Z'LYTE
Assay type: biochemical
Outline: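 NU5455 was profiled across the SelectScreen Broad panel of kinase activity and binding assays. Z'LYTE reactions such as CSF1R ran at apparent Km ATP, while the Adapta CAMK1 assay used ATP listed as 10. Values are given as percent.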

T1 sequence (P41240 whole entry): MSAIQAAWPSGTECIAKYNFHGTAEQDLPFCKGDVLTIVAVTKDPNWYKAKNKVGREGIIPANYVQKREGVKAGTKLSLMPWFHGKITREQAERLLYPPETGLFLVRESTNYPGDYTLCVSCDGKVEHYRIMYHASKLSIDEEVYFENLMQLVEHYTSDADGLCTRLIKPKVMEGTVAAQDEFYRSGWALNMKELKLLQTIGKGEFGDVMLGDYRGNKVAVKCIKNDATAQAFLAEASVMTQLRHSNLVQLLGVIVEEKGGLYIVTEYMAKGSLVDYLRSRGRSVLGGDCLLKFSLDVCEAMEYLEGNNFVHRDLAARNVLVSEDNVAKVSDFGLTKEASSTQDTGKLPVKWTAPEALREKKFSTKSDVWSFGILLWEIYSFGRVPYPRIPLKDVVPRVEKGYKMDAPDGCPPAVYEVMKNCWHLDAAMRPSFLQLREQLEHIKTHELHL

Question: How did the inhibition at 1 µM turn out when `CN(C(=O)CN1CCOCC1)c1ccc2sc3c(-c4cccc5c(=O)cc(N6CC7CCC(C6)O7)oc45)cccc3c2c1` [NU5455] was run?
Answer: Its inhibition at 1 µM is 7.6%.
